For series [1], the system named is B. subtilis. As to the kind of experiment: Tube dilution MIC. The conditions noted are these: Bacillus subtilis, 24 h, read-out: MIC B. subtilis.
Series [2] relates to MCF7 (human breast cancer) cell line. The series is described as follows: Sulforhodamine-B (SRB) cytotoxicity assay. The class given is cell-based.
The test system of series [3] is M. tuberculosis H37Rv. The series is described as follows: MIC by microplate alamar blue assay. The class given is cell-based. The conditions noted are these: Mycobacterium tuberculosis, NA = no activity, read-out: MIC against M. tuberculosis H37Rv.
Series [4] relates to C. albicans. The series is described as follows: MFC by subculturing. In kind it is cell-based. Here is the method:
(§1) The minimum bactericidal concentration (MBC) and minimum fungicidal concentration (MFC) of the synthesized benzimidazole derivatives was determined by subculturing 100 µl of culture from each tube that remained clear in MIC determination onto sterilized petri-plates containing fresh agar medium. The petri-plates were incubated and analyzed for microbial growth visually.

In series [5] the test system is A. niger. The series is described as follows: MFC by subculturing. The class given is cell-based. Here is the method:
as §1

Series [6] relates to M. tuberculosis H37Rv. As to the kind of experiment: Minimum lethal concentration (MLC). The class given is cell-based. The conditions noted are these: Mycobacterium tuberculosis, NA = no activity, read-out: MLC against M. tuberculosis H37Rv.
In series [7] the test system is M. tuberculosis H37Rv (NCFT/TB/537). As to the kind of experiment: Well diffusion susceptibility test (zone of inhibition). The class given is cell-based. The conditions noted are these: Mycobacterium tuberculosis, 672 h, read-out: Diameter of zone of inhibition against H37Rv (NCFT/TB/537), wells of 8 mm, 50 µg/ml test compound, 25 µg/ml standard drug, 4 weeks, NA = no activity.

The test system of series [8] is S. aureus. The series is described as follows: Tube dilution MIC. The conditions noted are these: Staphylococcus aureus, 24 h, read-out: MIC S. aureus.
In series [9] the test system is E. coli. The series is described as follows: Tube dilution MIC. The conditions noted are these: Escherichia coli, 24 h, read-out: MIC E. coli.
Series [10] deals with Gram positive as well as Gram negative bacterial species. The series is described as follows: Tube dilution MIC, bacteria overall. In kind it is cell-based.
The test system of series [11] is HCT116 (human colorectal) cell line. As to the kind of experiment: Sulforhodamine-B (SRB) cytotoxicity assay. In kind it is cell-based.
Series [12] concerns A. niger. As to the kind of experiment: microbe, parasite or virus in culture. The conditions noted are these: Aspergillus niger, 168 h, read-out: MIC A. niger.
For series [13], the system named is B. cereus. The series is described as follows: Tube dilution MIC. Conditions: Bacillus cereus, 24 h, read-out: MIC B. cereus.
Series [14] deals with C. albicans. The series is described as follows: microbe, parasite or virus in culture. Conditions: Candida albicans, 48 h, read-out: MIC C. albicans.
The test system of series [15] is E. coli. As to the kind of experiment: MBC by subculturing. The class given is cell-based. The conditions noted are these: Escherichia coli. Here is the method: as §1
Series [16] relates to B. cereus. As to the kind of experiment: MBC by subculturing. In kind it is cell-based. As to the method:
as §1

Series [17] deals with S. typhi. As to the kind of experiment: MBC by subculturing. In kind it is cell-based. Conditions: Salmonella enterica, read-out: MBC S. typhi. As to the method: as §1
Series [18] has as its system S. aureus. The series is described as follows: MBC by subculturing. In kind it is cell-based. The conditions noted are these: Staphylococcus aureus. Here is the method: as §1
In series [19] the test system is B. subtilis. The series is described as follows: MBC by subculturing. The class given is cell-based. As to the method:
as §1

Series [20] concerns S. typhi. The series is described as follows: Tube dilution MIC. The conditions noted are these: Salmonella enterica, 24 h, read-out: MIC S. typhi. In kind it is cell-based.
The nature of series [21]: In vivo LD50, ED50 and toxic dose in mice models. The conditions noted are these: mouse, dose that killed 50% of the mice population within the group. Here is the method: The LD50 and ED50 were determined for the active compounds in mice models infected with Mycobacterium H37Rv (Table 4). […] Thus, ED50 of 1.34 mg/kg was considered safe for each of the compounds. It was observed that this dose was effective and safe for mice in different groups before infecting the mice models with specific TB bacteria as no mortality of any single animal was recorded.
The LD50 (lethal dose) and ED50 (optimum/effective dose) doses were determined for the active compounds in mice models infected with Mycobacterium H37Rv via ethical permission no., NCFT/EC/16/2313 assigned to Collaborative Research Group (CRG), NCFT, New Delhi, India.

For series [22], the target named is mycobacterial isocitrate lyase (Mycobacterium tuberculosis, UniProt P9WKK7). As to the kind of experiment: Mycobacterial isocitrate lyase (ICL) assay. The class given is biochemical, M. tuberculosis H37Rv. Conditions: read-out: Percent inhibition of enzyme, M. ICL activity. As to the method: The compounds found potent in in vivo evaluation were assayed for inhibition of mycobacterial enzymes viz., isocitrate lyase, pantothenate synthetase and chorismate mutase.
Chain of mycobacterial isocitrate lyase (P9WKK7 whole entry): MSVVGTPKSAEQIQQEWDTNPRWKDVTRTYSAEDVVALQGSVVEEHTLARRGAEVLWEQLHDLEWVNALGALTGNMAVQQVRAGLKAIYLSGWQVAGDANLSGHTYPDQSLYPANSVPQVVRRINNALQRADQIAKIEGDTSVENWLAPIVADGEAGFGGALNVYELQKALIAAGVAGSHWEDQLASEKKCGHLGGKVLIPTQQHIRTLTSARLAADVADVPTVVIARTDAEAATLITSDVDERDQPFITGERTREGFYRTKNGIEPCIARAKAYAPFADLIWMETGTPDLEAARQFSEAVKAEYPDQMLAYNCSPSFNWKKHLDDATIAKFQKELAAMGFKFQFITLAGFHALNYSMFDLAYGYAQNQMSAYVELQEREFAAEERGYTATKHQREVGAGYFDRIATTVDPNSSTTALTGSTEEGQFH
Isocitrate lyase activity was assayed according to the protocol reported by Dixon and Kornberg (glyoxylate phenyl hydrazone formation) at 10 μM of the compounds.

Setting [23] is: SRB assay, MCF7 cell line, read-out: IC50 MCF7.
Setting [24] is: Candida albicans; read-out: MFC C. albicans.
The mark [25] stands for this setting: Aspergillus niger; read-out: MFC A. niger.
[26] abbreviates: HCT-116, SRB assay, HCT116 cell line, read-out: IC50 HCT116.
[27] abbreviates: Bacillus cereus; read-out: MBC B. cereus.
[28] abbreviates: Bacillus subtilis; read-out: MBC B. subtilis.

pIC50: −log10 of the molar value. Values after ≈ are worked out from the molar mass of the structure shown. Like-named read-outs stand apart in the source and are kept apart here.

For `O=C(CSc1nc2ccccc2n1C(=O)c1ccccc1)Nc1ccccc1Br` [Compound 7, 2-(1-Benzoyl-1H-benzo[d]imidazol-2-ylthio)-N-(2-bromophenyl)acetamide], the MIC with B. subtilis [1] turned out to be 27 µM (≈ 12.6 µg/mL); with M. tuberculosis H37Rv [3] it was 15 µg/mL (≈ 32.2 µM); in the series on S. aureus [8], 27 µM (≈ 12.6 µg/mL); in the series on E. coli [9], 27 µM (≈ 12.6 µg/mL); in the series on A. niger [12] it was 27 µM (≈ 12.6 µg/mL); in the series with B. cereus [13] it was 27 µM (≈ 12.6 µg/mL). The MIC in the series on C. albicans [14] and in the series with S. typhi [20] was 27 µM (≈ 12.6 µg/mL) in each case. Besides, the negative-log IC50 (pIC50) in [2] (setting [23]) was 4.25; in series [11] (setting [26]), 4.02. The minimum fungicidal concentration (MFC) in the series on C. albicans [4] (setting [24]) was 50 µg/mL (≈ 107 µM); with A. niger [5] (setting [25]), above 50 µg/mL. Besides, the MBC in the series on M. tuberculosis H37Rv [6] was 28 µg/mL (≈ 60 µM); in the series with E. coli [15] it was 50 µg/mL (≈ 107 µM); in the series on B. cereus [16] (setting [27]), above 50 µg/mL; in the series on S. typhi [17], above 50 µg/mL; against S. aureus [18] it was 50 µg/mL (≈ 107 µM); in the series on B. subtilis [19] (setting [28]), above 50 µg/mL. Moreover, in series [7], the zone of inhibition at 50 µg/mL stood at 10 mm. Moreover, the “MIC against Gram positive as well as Gram negative bacterial species” value (from here on “MIC against Gram positive as well”) in series [10] is 0.027 µM/ml.
In the case of `O=C(CSc1nc2ccccc2n1C(=O)c1ccccc1)Nc1cccc(Br)c1` [Compound 8, 2-(1-Benzoyl-1H-benzo[d]imidazol-2-ylthio)-N-(3-bromophenyl)acetamide], the MIC with B. subtilis [1] turned out to be 27 µM (≈ 12.6 µg/mL); in the series on M. tuberculosis H37Rv [3] it was 12.5 µg/mL (≈ 26.8 µM); in the series with S. aureus [8], 27 µM (≈ 12.6 µg/mL); with E. coli [9] it was 27 µM (≈ 12.6 µg/mL); in the series with A. niger [12], 27 µM (≈ 12.6 µg/mL); with B. cereus [13] it was 27 µM (≈ 12.6 µg/mL). Moreover, the figures for the MIC in the series on C. albicans [14] and with S. typhi [20] were 13 µM (≈ 6.06 µg/mL) and 27 µM (≈ 12.6 µg/mL), respectively. In addition, the pIC50 in series [2] (MCF7, read-out: IC50 MCF7) was 4.16; in series [11] (HCT-116, read-out: IC50 HCT116), 3.97. The minimum fungicidal concentration (MFC) with C. albicans [4] (Candida albicans, read-out: MFC C. albicans) is 50 µg/mL (≈ 107 µM); with A. niger [5] (Aspergillus niger, read-out: MFC A. niger), above 50 µg/mL. Also, the MBC with M. tuberculosis H37Rv [6] is 25 µg/mL (≈ 53.6 µM); in the series with E. coli [15] it was above 50 µg/mL; with B. cereus [16] (Bacillus cereus, read-out: MBC B. cereus) it was above 50 µg/mL; in the series on S. typhi [17] it was above 50 µg/mL; in the series with S. aureus [18], 50 µg/mL (≈ 107 µM); in the series on B. subtilis [19] (Bacillus subtilis, read-out: MBC B. subtilis), above 50 µg/mL. In [7], the zone of inhibition at 50 µg/mL was above 20 mm. In series [21], this compound came in with an LD50 of 1.88 mg/kg. In addition, the “MIC against Gram positive as well” value in [10] is given as 0.027 µM/ml. In series [22], the inhibition at 10 µM is 59.5%.
For `O=C(CSc1nc2ccccc2n1C(=O)c1ccccc1)Nc1ccc(Br)cc1` [Compound 9, 2-(1-Benzoyl-1H-benzo[d]imidazol-2-ylthio)-N-(4-bromophenyl)acetamide], the MIC in the series on B. subtilis [1] was found to be 27 µM (≈ 12.6 µg/mL); with M. tuberculosis H37Rv [3], 17.8 µg/mL (≈ 38.2 µM); with S. aureus [8], 27 µM (≈ 12.6 µg/mL); in the series on E. coli [9], 27 µM (≈ 12.6 µg/mL); in the series on A. niger [12] it was 27 µM (≈ 12.6 µg/mL); in the series with B. cereus [13] it was 27 µM (≈ 12.6 µg/mL). The MIC worked out at 13 µM (≈ 6.06 µg/mL) in the series on C. albicans [14] and 27 µM (≈ 12.6 µg/mL) in the series on S. typhi [20]. The pIC50 in series [2] (setting [23]) is below 3.67; in [11] (setting [26]), 4.19. Moreover, the MFC in the series with C. albicans [4] (setting [24]) is 50 µg/mL (≈ 107 µM); in the series on A. niger [5] (setting [25]), above 50 µg/mL. In addition, the MBC was 28.1 µg/mL (≈ 60.3 µM) in the series with M. tuberculosis H37Rv [6]; above 50 µg/mL in the series with E. coli [15]; above 50 µg/mL in the series with B. cereus [16] (setting [27]); 50 µg/mL (≈ 107 µM) with S. typhi [17]; above 50 µg/mL against S. aureus [18]; above 50 µg/mL in the series on B. subtilis [19] (setting [28]). Further, the zone of inhibition at 50 µg/mL in [7] amounted to 8 mm. Moreover, the “MIC against Gram positive as well” value in series [10] was 0.027 µM/ml.

Values taken from publication PMC5971037, “Synthesis and evaluation of antimicrobial, antitubercular and anticancer activities of 2-(1-benzoyl-1H-benzo[d]imidazol-2-ylthio)-N-substituted acetamides” (Chemistry Central Journal, 2018).
